Assay results taken from ChEMBL document CHEMBL4680147, “Discovery of 6'-chloro-N-methyl-5'-(phenylsulfonamido)-[3,3'-bipyridine]-5-carboxamide (CHMFL-PI4K-127) as a novel Plasmodium falciparum PI(4)K inhibitor with potent antimalarial activity against both blood and liver stages of Plasmodium” (Eur J Med Chem, 2020).
Calls of active or inactive are those of the source. No cut-off for these calls is given here.

Key:
[1] = tested on: Plasmodium berghei; experiment: Antimalarial activity against […] luciferase-expressing Plasmodium berghei sporozoites infected in BALB/c mouse assessed as suppression of parasitemia at 1 to 15 mg/kg, po treated for 2 hrs followed by parasite infection and measured upto 8 days post-infection by luciferase based real-time imaging analysis; type: functional, organism-based; details: dose 1-15 mg/kg, time 194.0 hrs
[2] = tested on: Plasmodium falciparum; experiment: Antimalarial activity against mefloquine/chloroquine/pyrimethamine resistant Plasmodium falciparum Dd2 infected in human O+ erythrocytes incubated for 72 hrs by SYBR Green 1 dye based fluorescence assay; type: functional, organism-based; details: Dd2, Erythrocyte
[3] = target: Phosphatidylinositol 4,5-bisphosphate 3-kinase catalytic subunit alpha isoform (Homo sapiens, UniProt P42336); experiment: Inhibition of human PI3Kalpha by ADP-Glo kinase assay
Sequence of Phosphatidylinositol 4,5-bisphosphate 3-kinase catalytic subunit alpha isoform (P42336 whole entry, canonical isoform): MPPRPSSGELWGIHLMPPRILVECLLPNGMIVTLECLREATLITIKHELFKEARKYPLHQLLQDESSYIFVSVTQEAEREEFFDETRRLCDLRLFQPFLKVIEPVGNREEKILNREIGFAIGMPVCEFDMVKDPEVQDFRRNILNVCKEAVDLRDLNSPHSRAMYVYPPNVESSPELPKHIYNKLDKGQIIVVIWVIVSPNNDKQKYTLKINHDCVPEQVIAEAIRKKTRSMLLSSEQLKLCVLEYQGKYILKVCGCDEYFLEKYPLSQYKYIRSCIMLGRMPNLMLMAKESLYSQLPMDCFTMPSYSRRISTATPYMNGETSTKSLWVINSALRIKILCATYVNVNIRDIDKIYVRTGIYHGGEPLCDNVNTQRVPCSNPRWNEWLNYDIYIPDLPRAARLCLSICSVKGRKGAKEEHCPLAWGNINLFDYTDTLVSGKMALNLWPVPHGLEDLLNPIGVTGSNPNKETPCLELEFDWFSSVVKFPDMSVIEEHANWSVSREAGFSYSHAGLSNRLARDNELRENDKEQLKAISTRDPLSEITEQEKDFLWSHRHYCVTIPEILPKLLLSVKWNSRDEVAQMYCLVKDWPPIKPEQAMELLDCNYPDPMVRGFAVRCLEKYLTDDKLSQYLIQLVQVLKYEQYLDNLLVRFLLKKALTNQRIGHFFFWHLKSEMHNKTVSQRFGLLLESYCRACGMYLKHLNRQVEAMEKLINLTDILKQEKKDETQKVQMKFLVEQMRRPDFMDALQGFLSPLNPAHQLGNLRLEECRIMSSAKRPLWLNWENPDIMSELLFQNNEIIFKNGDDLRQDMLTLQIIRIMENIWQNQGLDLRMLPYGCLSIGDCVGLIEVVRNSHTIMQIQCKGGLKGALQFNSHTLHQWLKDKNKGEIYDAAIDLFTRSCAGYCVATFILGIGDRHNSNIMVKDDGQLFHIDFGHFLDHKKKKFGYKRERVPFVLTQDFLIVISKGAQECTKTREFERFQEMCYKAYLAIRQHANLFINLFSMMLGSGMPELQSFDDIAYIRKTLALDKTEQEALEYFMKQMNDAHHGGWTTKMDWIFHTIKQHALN

[4] = target: Phosphatidylinositol 4,5-bisphosphate 3-kinase catalytic subunit gamma isoform (Homo sapiens, UniProt P48736); experiment: Inhibition of human PI3Kgamma by ADP-Glo kinase assay
[5] = target: Phosphatidylinositol 3-kinase catalytic subunit type 3 (Homo sapiens, UniProt Q8NEB9); experiment: Inhibition of human VPS34 by ADP-Glo kinase assay
Sequence of Phosphatidylinositol 3-kinase catalytic subunit type 3 (Q8NEB9 whole entry): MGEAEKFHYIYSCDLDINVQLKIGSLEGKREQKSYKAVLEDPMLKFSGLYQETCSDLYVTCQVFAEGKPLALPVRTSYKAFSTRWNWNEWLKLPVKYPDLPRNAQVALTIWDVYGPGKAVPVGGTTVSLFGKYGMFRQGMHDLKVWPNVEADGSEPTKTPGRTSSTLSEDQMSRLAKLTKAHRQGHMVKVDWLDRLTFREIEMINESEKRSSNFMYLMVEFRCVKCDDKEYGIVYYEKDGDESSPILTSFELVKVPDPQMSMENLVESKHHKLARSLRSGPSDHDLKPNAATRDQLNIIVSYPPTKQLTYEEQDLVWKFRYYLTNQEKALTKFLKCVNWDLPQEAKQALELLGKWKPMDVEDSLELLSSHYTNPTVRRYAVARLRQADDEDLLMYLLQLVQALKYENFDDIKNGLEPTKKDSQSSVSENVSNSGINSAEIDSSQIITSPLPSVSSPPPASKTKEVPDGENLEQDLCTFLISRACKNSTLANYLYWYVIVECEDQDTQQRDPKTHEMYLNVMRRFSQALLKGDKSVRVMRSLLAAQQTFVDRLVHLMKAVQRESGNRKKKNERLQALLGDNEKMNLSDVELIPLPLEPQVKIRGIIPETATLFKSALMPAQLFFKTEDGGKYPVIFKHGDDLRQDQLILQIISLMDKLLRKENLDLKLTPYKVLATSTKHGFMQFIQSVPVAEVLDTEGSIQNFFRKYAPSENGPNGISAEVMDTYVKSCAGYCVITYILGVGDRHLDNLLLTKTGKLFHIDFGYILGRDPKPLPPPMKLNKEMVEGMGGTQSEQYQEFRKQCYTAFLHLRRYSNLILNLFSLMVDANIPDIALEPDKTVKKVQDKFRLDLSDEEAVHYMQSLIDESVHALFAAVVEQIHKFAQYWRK

[6] = target: Phosphatidylinositol 4-kinase alpha (Homo sapiens, UniProt P42356); experiment: Inhibition of human PI4K3alpha by ADP-Glo kinase assay
Sequence of Phosphatidylinositol 4-kinase alpha (P42356 whole entry): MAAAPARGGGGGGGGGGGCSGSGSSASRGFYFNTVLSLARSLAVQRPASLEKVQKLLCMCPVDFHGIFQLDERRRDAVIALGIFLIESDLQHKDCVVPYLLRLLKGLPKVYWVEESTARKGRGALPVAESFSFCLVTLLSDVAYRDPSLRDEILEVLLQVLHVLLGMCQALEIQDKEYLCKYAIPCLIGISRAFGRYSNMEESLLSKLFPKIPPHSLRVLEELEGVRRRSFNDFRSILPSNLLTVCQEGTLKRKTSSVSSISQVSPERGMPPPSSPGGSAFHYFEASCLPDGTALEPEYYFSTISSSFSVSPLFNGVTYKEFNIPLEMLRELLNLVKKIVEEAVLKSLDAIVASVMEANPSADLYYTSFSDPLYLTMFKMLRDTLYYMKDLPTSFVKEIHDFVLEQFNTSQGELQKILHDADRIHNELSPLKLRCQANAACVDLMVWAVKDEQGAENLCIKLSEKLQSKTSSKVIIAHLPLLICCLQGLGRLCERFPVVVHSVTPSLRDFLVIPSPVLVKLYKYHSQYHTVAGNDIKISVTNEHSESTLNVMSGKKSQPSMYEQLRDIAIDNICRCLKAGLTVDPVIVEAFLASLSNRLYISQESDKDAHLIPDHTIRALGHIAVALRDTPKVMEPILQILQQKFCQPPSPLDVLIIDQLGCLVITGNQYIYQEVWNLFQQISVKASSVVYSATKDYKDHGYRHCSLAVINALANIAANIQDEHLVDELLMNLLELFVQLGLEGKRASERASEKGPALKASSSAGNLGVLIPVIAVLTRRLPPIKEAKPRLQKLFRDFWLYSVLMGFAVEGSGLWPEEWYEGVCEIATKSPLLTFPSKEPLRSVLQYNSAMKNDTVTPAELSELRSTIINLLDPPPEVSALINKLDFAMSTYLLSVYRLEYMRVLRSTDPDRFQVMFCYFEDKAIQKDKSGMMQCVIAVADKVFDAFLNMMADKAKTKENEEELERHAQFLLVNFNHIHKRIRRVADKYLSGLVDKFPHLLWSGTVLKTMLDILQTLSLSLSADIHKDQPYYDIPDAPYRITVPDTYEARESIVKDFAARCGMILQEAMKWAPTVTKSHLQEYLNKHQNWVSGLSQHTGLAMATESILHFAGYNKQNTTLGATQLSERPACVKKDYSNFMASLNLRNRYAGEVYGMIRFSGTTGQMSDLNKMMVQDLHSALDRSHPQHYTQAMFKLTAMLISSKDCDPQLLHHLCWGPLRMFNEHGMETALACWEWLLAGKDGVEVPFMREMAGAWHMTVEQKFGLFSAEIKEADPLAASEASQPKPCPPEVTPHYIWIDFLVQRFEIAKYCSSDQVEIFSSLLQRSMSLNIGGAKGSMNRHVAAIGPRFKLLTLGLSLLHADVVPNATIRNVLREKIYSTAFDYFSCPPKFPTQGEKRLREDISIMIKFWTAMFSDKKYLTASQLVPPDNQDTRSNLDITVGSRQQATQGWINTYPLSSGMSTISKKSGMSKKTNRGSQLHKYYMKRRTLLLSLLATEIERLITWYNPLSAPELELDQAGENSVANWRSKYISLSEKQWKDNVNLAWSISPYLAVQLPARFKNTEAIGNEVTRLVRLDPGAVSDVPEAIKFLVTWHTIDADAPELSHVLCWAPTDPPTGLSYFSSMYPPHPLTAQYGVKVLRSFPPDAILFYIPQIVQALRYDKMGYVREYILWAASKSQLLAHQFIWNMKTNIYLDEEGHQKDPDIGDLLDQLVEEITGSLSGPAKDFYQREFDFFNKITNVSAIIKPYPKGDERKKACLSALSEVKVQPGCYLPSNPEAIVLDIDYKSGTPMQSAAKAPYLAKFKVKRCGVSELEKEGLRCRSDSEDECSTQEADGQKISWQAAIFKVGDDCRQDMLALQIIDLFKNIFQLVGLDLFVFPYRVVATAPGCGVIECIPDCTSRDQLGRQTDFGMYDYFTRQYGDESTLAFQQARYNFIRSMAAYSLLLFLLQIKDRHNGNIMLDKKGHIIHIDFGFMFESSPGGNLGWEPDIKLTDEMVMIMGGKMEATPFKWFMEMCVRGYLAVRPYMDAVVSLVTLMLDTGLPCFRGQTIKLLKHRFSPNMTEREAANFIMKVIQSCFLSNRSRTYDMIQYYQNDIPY

[7] = Selectivity index, ratio of IC50 for human PI3Kdelta to IC50 for recombinant His-tagged Plasmodium falciparum 3D7 PI4K expressed in baculovirus infected Sf9 cells
[8] = Selectivity index, ratio of IC50 for human PI4K3alpha to IC50 for recombinant His-tagged Plasmodium falciparum 3D7 PI4K expressed in baculovirus infected Sf9 cells
[9] = Selectivity index, ratio of IC50 for human PI3Kbeta to IC50 for recombinant His-tagged Plasmodium falciparum 3D7 PI4K expressed in baculovirus infected Sf9 cells
[10] = Selectivity index, ratio of IC50 for human PI4K3beta to IC50 for recombinant His-tagged Plasmodium falciparum 3D7 PI4K expressed in baculovirus infected Sf9 cells
[11] = tested on: Plasmodium falciparum; experiment: Antimalarial activity against artemisinin and piperaquine-phosphate resistant Plasmodium falciparum 6320 infected in human O+ erythrocytes incubated for 72 hrs by SYBR Green 1 dye based fluorescence assay; type: functional, organism-based; details: Plasmodium falciparum, 6320, Erythrocyte
[12] = tested on: Plasmodium falciparum; experiment: Antimalarial activity against pyrimethamine/chloroquine resistant Plasmodium falciparum C2A infected in human O+ erythrocytes incubated for 72 hrs by SYBR Green 1 dye based fluorescence assay; type: functional, organism-based; details: Erythrocyte
[13] = tested on: Plasmodium falciparum; experiment: Antimalarial activity against chloroquine resistant Plasmodium falciparum D10 infected in human O+ erythrocytes incubated for 72 hrs by SYBR Green 1 dye based fluorescence assay; type: functional, organism-based; details: D10, Erythrocyte
[14] = tested on: Plasmodium falciparum; experiment: Antimalarial activity against pyrimethamine/chloroquine resistant Plasmodium falciparum CP286 infected in human O+ erythrocytes incubated for 72 hrs by SYBR Green 1 dye based fluorescence assay; type: functional, organism-based; details: CP286, Erythrocyte
[15] = AUC(0 to t) in Sprague-Dawley rat at 1 mg/kg, iv; type: ADME, organism-based; design: dose 1 mg/kg; details: in vivo
[16] = AUC(0 to t) in mouse at 1 mg/kg, iv; type: ADME, organism-based; design: dose 1 mg/kg; details: in vivo
[17] = AUC(0 to infinity) in Sprague-Dawley rat at 1 mg/kg, iv; type: ADME, organism-based; design: time infinity, route intravenous, dose 1 mg/kg; details: in vivo
[18] = AUC(0 to infinity) in mouse at 10 mg/kg, po; type: ADME, organism-based; design: route oral, time infinity, dose 10 mg/kg; details: in vivo
[19] = Mean residence time (0 to t) in Sprague-Dawley rat at 1 mg/kg, iv; type: ADME, organism-based; details: in vivo
[20] = Cmax in Sprague-Dawley rat at 10 mg/kg, po; type: ADME, organism-based; design: route oral, dose 10 mg/kg; details: in vivo
[21] = Cmax in mouse at 1 mg/kg, iv; type: ADME, organism-based; design: route intravenous, dose 1 mg/kg; details: in vivo
[22] = Cmax in mouse at 10 mg/kg, po; type: ADME, organism-based; design: route oral, dose 10 mg/kg; details: in vivo
[23] = Apparent volume of distribution in Sprague-Dawley rat at 10 mg/kg, po; type: ADME, organism-based; details: in vivo
[24] = Apparent volume of distribution in mouse at 10 mg/kg, po; type: ADME, organism-based; details: in vivo
[25] = Apparent clearance in Sprague-Dawley rat at 10 mg/kg, po; type: ADME, organism-based; details: in vivo, read-out: CL(app) (converted)
[26] = Apparent clearance in mouse at 1 mg/kg, iv; type: ADME, organism-based; details: in vivo, read-out: CL(app) (converted)
[27] = Apparent clearance in mouse at 10 mg/kg, po; type: ADME, organism-based; details: in vivo, read-out: CL(app) (converted)
[28] = Tmax in Sprague-Dawley rat at 1 mg/kg, iv; type: ADME, organism-based; details: in vivo
[29] = Tmax in Sprague-Dawley rat at 10 mg/kg, po; type: ADME, organism-based; details: in vivo
[30] = Tmax in mouse at 1 mg/kg, iv; type: ADME, organism-based; details: in vivo
[31] = Tmax in mouse at 10 mg/kg, po; type: ADME, organism-based; details: in vivo
[32] = Half life in mouse at 1 mg/kg, iv; type: ADME, organism-based; details: in vivo
[33] = Half life in mouse at 10 mg/kg, po; type: ADME, organism-based; details: in vivo
[34] = Oral bioavailability in mouse at 10 mg/kg; type: ADME, organism-based; details: in vivo
[35] = tested on: Plasmodium yoelii; experiment: Antimalarial activity against blood stage Plasmodium yoelii infected in BALB/c mouse assessed as suppression of parasitemia administered once daily via oral gavage for 7 consecutive days starting from 1 day post-infection and observed for 20 days by Giemsa-staining based microscopic analysis; type: functional, organism-based; details: dose 60-80 mg/kg/day, time 20.0 day
[36] = tested on: Plasmodium yoelii; experiment: Antimalarial activity against blood stage Plasmodium yoelii infected in BALB/c mouse assessed as suppression of parasitemia at 60 mg/kg/day, po administered for 7 consecutive days starting from 1 day post-infection and observed for 20 days by Giemsa-staining based microscopic analysis; type: functional, organism-based; details: time 20.0 day
[37] = tested on: Plasmodium yoelii; experiment: Antimalarial activity against blood stage Plasmodium yoelii infected in BALB/c mouse assessed as suppression of parasitemia at 80 mg/kg/day, po administered for 7 consecutive days starting from 1 day post-infection and observed for 20 days by Giemsa-staining based microscopic analysis; type: functional; details: time 20 day
[38] = Selectivity index, ratio of EC50 for antimalarial activity against Plasmodium falciparum harboring PI4K Y1342I/T1360A mutant infected in human O+ erythrocytes to EC50 for antimalarial activity against Plasmodium falciparum harboring PI4K Y1342I mutant infected in human O+ erythrocytes; type: functional
[39] = Selectivity index, ratio of EC50 for antimalarial activity against wild type Plasmodium falciparum infected in human O+ erythrocytes to EC50 for antimalarial activity against Plasmodium falciparum harboring PI4K Y1342I mutant infected in human O+ erythrocytes; type: functional, Erythrocyte
[40] = tested on: Plasmodium yoelii; experiment: Antimalarial activity against blood stage Plasmodium yoelii infected in BALB/c mouse assessed as suppression of parasitemia at 60 mg/kg/day, po administered for 7 consecutive days starting from 1 day post-infection and measured after cessation of drug treatment by Giemsa-staining based microscopic analysis; type: functional, organism-based; details: time 7.0 day

## CNC(=O)c1cncc(-c2cnc(Cl)c(NS(=O)(=O)c3ccccc3)c2)c1
[1]
  Activity: Active
[2]
  EC50: 30.3 nM
[3]
  IC50: 191 nM
[4]
  IC50: 324 nM
[5]
  IC50: 681 nM
[6]
  IC50: 165 nM
[7]
  Ratio IC50: 100
[8]
  Ratio IC50: 100
[9]
  Ratio IC50: 400
[10]
  Ratio IC50: 400
[11]
  EC50: 24.7 nM
[12]
  EC50: 28 nM
[13]
  EC50: 28 nM
[14]
  EC50: 24.1 nM
[15]
  AUC(0-t): 2160 ng·h/mL
[16]
  AUC(0-t): 327 ng·h/mL
[17]
  AUC(0-inf): 2170 ng·h/mL
[18]
  AUC(0-inf): 2380 ng·h/mL
[19]
  MRT last: 60 min
[20]
  Cmax: 4340 ng/mL
[21]
  Cmax: 718 ng/mL
[22]
  Cmax: 1540 ng/mL
[23]
  Vz: 2.2 L/kg
[24]
  Vz: 20.2 L/kg
[25]
  CL/F: 8.33 mL/min/kg
[26]
  clearance: 51.7 mL/min/kg
[27]
  CL/F: 65 mL/min/kg
[28]
  Tmax: 1.2 min
[29]
  Tmax: 49.8 min
[30]
  Tmax: 1.8 min
[31]
  Tmax: 11.4 min
[32]
  half-life: 162 min
[33]
  half-life: 216 min
[34]
  bioavailability: 80%
[35]
  Activity: Dose dependent effect
[36]
  Activity: Active
[37]
  Activity: 100%
[38]
  Ratio EC50: 24
[39]
  Ratio EC50: 2
[40]
  Activity: inactive
